Assay [1] relates to osteoclasts differentiated from human monocytes on bone matrix. The assay is described as follows: Bone resorption in vitro (Crosslaps assay, CTX release). It counts as cell-based. The note with it: for inhibition at 0.2 µM: 200 nM in differentiating medium; for inhibition at 20 µM: Monocyte, monocytes pre-incubated (6 hours, 20 μM) before differentiation. How it is done: PBMC from adult healthy volunteers are prepared as described in example 1.
Monocytes are then purified as described in section 4.2.
Monocytes were cultured in bone matrix 96-well plates (OsteoAssay Human bone plate, Lonza, USA) and differentiated into osteoclasts in the presence of M-CSF and sRANK-Ligand as described in section 4.2. Supernatants were collected and bone resorption was evaluated using a Crosslaps assay (Nordicbioscience, Danemark) which measures collagen degradation fragments.

Assay [2] concerns human monocytes. The assay is described as follows: Flow cytometry phenotype of dendrimer-activated monocytes (surface markers). Type of assay: cell-based. As to conditions: 20 μM, compared with alt- and class-monocytes. As for the experimental part:
For the functional experiments, freshly purified monocytes are cultured in 6-well plates. The cells are stimulated for 24 hours (immunophenotyping by flow cytometry analyses, MLR) or 96 hours (CD206 detection) with different stimuli or remain untreated (control). Dendrimer-activated monocytes (da-monocytes) are obtained with 20 μM of the dendrimer Gc1, alternatively-activated monocytes (alt-monocytes) with 10 U/mL recombinant human IL4 (Peprotech). The classical activation of monocytes is obtained by priming the cells over night (18 hours) with 100 U/mL of human recombinant IFN-γ (R&D Systems) and, after a washing step in PBS, by stimulation with 10 ng/mL LPS from E. coli 011/B4 strain (InvivoGen) for the remaining 6 hours or […].
Flow cytometry is performed on a LSR-II cytometer (BD Biosciences). The data are analyzed with FACSDiva (BD Biosciences) or WinMDI softwares. The expression of surface markers is performed using mouse anti-human fluorochrome-conjugated mAbs specific for MHC class II-FITC (clone Tü36), CD86-PE (clone 2331), MHC class I-PE-Cy5 (clone G46-2.6) and CD13-PE (clone WM15) from BD Biosciences and specific for CD64-FITC (clone 22) and CD206-PE (clone 3.29B1.10) from Beckman-Coulter. Appropriate isotype-matched antibodies are used as negative control.

The test system of assay [3] is CD4+ T cells. The assay is described as follows: Intracellular detection of IL10 in CD4+ T cells after MLR. Type of assay: cell-based, human. As to conditions: PBL:monocytes 4:1, 5 hours re-stimulation; compared to MLR with class-monocytes. How it is done: Six days following the primary stimulation with one of the differently activated monocytes at a ratio of PBL:monocytes of 4:1, cells were restimulated with 10000 anti-CD 3/anti-CD28 beads for 5 hours (according to the technical description by J. P. Edwards et al., (2006) J Leukoc Biol 80, 1298-1307) and with 10 μg/mL Brefeldin A (Sigma-Aldrich) to inhibit cytokine secretion. Cells are then harvested, washed with PBS and incubated 15 minutes at 4° C. with mouse mAb anti-human CD4-PE (clone 13B8.2, Beckman-Coulter) in PBS with 5% FCS. Cells washed twice, are then fixed by 2% paraformaldehyde in PBS and permeabilized with 1% saponin in PBS. Intracellular staining is performed with AlloPhycoCyanin-conjugated rat anti-human IL10 (clone JES3-19F1, BD Bioscience) for 30 minutes at 4° C. in PBS with 1% saponin and analyzed by flow cytometry. Each condition is done in triplicate and results are expressed as the mean±SD. Intracellular IL10 mean fluorescence intensity (mfi) means across the differently activated monocytes are compared by one-way analysis of variance, the comparisons between CD4^+/CFSE^− and CD4^+/CFSE^+ cells are done with Student's t-test using Sigma Stat software (Systat Software).

Assay [4] has as its system human monocytes. The assay is described as follows: Affymetrix genechip transcriptional profile of monocytes activated by dendrimer. Type of assay: cell-based. The note with it: 20 μM, 6 hours, vs untreated monocytes. As for the experimental part: Peripheral Blood Mononuclear Cells (PBMC) from adult healthy volunteers are prepared as described in example 1.
Monocytes are then purified by positive selection using microbeads conjugated with anti-CD14 mAb, according to the manufacturer's instructions (Miltenyi Biotec). The cells obtained after the purification are >95% pure. The CD14 negative fraction is collected as Peripheral Blood Lymphocytes (PBL).
Monocytes are cultured at a final concentration of 1×10^6 cells/mL in complete RPMI 1640 medium (as described in example 1.1).
For genechip analysis, 10×10^6 monocytes from 3 donors (and from 3 more donors for quantitative PCR) are cultured in 25 cm^2 dishes. They are stimulated with 20 μM of dendrimer for 6 hours or remain untreated (control cells).
Total RNA are extracted from 10×10^6 monocytes using TRIzol™ Reagent (Invitrogen), according to the manufacturer's instructions. The quality and integrity of the RNA obtained are assessed by using an Agilent 2100 Bioanalyser (Agilent Technologies) after a denaturating step at 70° C. for 2 minutes. cRNA are prepared according to one-Cycle Target Labelling protocol (Affymetrix) starting from 1 μg of total RNA.
cRNA are fragmented and hybridized to Affymetrix HG-U133 plus 2.0 arrays. […] Monocytes from 3 donors are analyzed after 6 hour incubation in the presence or absence of the dendrimer Gc1. […]

Consider `CN(/N=C/c1ccc(OP2(Oc3ccc(/C=N/N(C)P(=S)(Oc4ccc(CCN(CP(=O)(O)O)CP(=O)(O)O)cc4)Oc4ccc(CCN(CP(=O)(O)O)CP(=O)(O)O)cc4)cc3)=NP(Oc3ccc(/C=N/N(C)P(=S)(Oc4ccc(CCN(CP(=O)(O)O)CP(=O)(O)O)cc4)Oc4ccc(CCN(CP(=O)(O)O)CP(=O)(O)O)cc4)cc3)(Oc3ccc(/C=N/N(C)P(=S)(Oc4ccc(CCN(CP(=O)(O)O)CP(=O)(O)O)cc4)Oc4ccc(CCN(CP(=O)(O)O)CP(=O)(O)O)cc4)cc3)=NP(Oc3ccc(/C=N/N(C)P(=S)(Oc4ccc(CCN(CP(=O)(O)O)CP(=O)(O)O)cc4)Oc4ccc(CCN(CP(=O)(O)O)CP(=O)(O)O)cc4)cc3)(c3ccc(/C=N/N(C)P(=S)(Oc4ccc(CCN(CP(=O)(O)O)CP(=O)(O)O)cc4)Oc4ccc(CCN(CP(=O)(O)O)CP(=O)(O)O)cc4)cc3)=N2)cc1)P(=S)(Oc1ccc(CCN(CP(=O)(O)O)CP(=O)(O)O)cc1)Oc1ccc(CCN(CP(=O)(O)O)CP(=O)(O)O)cc1` (centres unmarked) [Gc1], for which the inhibition at 0.2 µM in assay [1] (288 h, day 12) was ~60%; in assay [1] (360 h, day 15), ~80%. For the same compound, the results for the inhibition at 20 µM in assay [1] (day 12) and in assay [1] (day 15) were ~80% and ~50%, respectively. Moreover, the “cell surface expression of CD13 (aminopeptidase N)” value in assay [2] (24 hours) was “Class-monocytes express a higher level of CD13 than alt- and da-monocytes”. Moreover, the “cell surface expression of CD64 (FcγRI)” value in assay [2] (24 hours) is listed as “overexpressed in class-monocytes, but not in alt- or da-monocytes”. The “expression of HLA-DR, HLA-A,B,C and CD86 (antigen-presenting capacity)” value in assay [2] (24 hours) was “poor APC”. Moreover, the “cell surface expression of mannose receptor MRC1 (CD206)” value in assay [2] (96 hours) is “strongly enhanced”. The “production of IL10 by divided CD4+ T cells in MLR with da-monocytes” value in assay [3] is given as “significantly enhanced”. For the same compound, the “number of genes under-expressed by da-monocytes” value in assay [4] (fold change ≤−2.0 in at least two of three donors) is reported as 62. Besides, the “number of genes over-expressed by da-monocytes” value in assay [4] (fold change ≥2.0 in at least two of three donors) is 78.

For the origin of these results see patent US10106565B2 (priority 2008, dated 2018).
